Measured values published in patent EP0469547B1, “4-Amino-delta4,6-steroids and their use as 5alpha-reductase inhibitors” (MERRELL PHARMACEUTICALS INC., priority 1990, dated 1992).

Biological target: T1, steroid 5α-reductase (Homo sapiens, UniProt P31213)
T1 construct: Microsomal preparations of the steroid 5α-reductase enzyme (protein) were obtained from human prostate tissue; from tissue; host or cells: human prostate tissue (microsomal preparation)
T1 sequence (P31213 1-254): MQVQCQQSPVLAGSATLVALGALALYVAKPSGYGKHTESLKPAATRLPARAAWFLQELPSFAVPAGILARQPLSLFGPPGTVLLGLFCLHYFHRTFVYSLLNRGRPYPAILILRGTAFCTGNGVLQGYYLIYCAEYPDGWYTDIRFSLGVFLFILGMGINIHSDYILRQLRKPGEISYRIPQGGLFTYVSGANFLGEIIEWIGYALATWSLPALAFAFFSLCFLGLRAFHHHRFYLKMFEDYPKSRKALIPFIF
Experiment: 5α-reductase inhibition test with human prostate microsomal preparations (conversion of 1,2-³H-testosterone to dihydrotestosterone, HPLC)
Assay type: biochemical
Procedure: Microsomal preparations of the steroid 5α-reductase enzyme (protein) were obtained from human prostate tissue and stored in aliquots. Protein concentration was determined prior to use of the samples. In the method itself, individual assays for 5α-reductase activity contained 0.1M phosphate citrate buffer, pH 5.6, 1mM EDTA, 7 to 22 µg of microsomal protein, 1mM NADPH, 5 mM glucose-6-phosphate, 1 IU/ml glucose-6-phosphate dehydrogenase, 1,2-³H-testosterone, and test compound, dissolved in dimethyl sulfoxide and then diluted in phosphate-citrate buffer to yield a final assay concentration of 0.1% (v/v) dimethyl sulfoxide. The same buffer and the same quantity of dimethyl sulfoxide, without any test compound is used for the control assays. The total assay volume was 100 µl and assays were performed in duplicate. The reaction was initiated by the addition of the testosterone, and incubated for 30 minutes at 25°C. The assay is linear with time to 30 minutes.
Depending on the nature of the inhibition, testosterone concentration was typically varied from 0.15 µM (approximately 0.5 Km) to 10 Km with radioactive label constant at 0.15 µCi per assay. The amount of test compound added was varied to provide final concentrations of 1 nM to 100 µM. The reaction was quenched by the addition of 50 volumes of chloroform:methanol (2:1). The steroids were then extracted and separated by high pressure liquid chromatography and the amounts of testosterone and dihydrotestosterone present were determined to determine the percent conversion of testosterone to dihydrotestosterone and to calculate the 5α-reductase activity. The activity of the test compound was then expressed as the IC₅₀, or the concentration of test compound that produced a 50% inhibition of the testosterone conversion. When compounds of the present invention were tested in this way, the following results were observed: […]

Structure (SMILES)	IC50
CC(C)N(C(=O)[C@H]1CC[C@H]2[C@@H]3C=CC4=C(N)C(=O)CC[C@]4(C)[C@H]3CC[C@]12C)C(C)C [4-Amino-N,N-bis(1-methylethyl)-3-oxoandrosta-4,6-diene-17β-carboxamide]	16 nM
CC(C)(C)NC(=O)[C@H]1CC[C@H]2[C@@H]3C=CC4=C(N)C(=O)CC[C@]4(C)[C@H]3CC[C@]12C [4-Amino-N-(1,1-dimethylethyl)-3-oxoandrosta-4,6-diene-17β-carboxamide]	8 nM
CC(=O)[C@H]1CC[C@H]2[C@@H]3C=CC4=C(N)C(=O)CC[C@]4(C)[C@H]3CC[C@]12C [4-Aminopregna-4,6-diene-3,20-dione]	25 nM
